The target in one data set is T1, M1 receptors (Rattus norvegicus, UniProt P08482).
T1 sequence (P08482 1-460): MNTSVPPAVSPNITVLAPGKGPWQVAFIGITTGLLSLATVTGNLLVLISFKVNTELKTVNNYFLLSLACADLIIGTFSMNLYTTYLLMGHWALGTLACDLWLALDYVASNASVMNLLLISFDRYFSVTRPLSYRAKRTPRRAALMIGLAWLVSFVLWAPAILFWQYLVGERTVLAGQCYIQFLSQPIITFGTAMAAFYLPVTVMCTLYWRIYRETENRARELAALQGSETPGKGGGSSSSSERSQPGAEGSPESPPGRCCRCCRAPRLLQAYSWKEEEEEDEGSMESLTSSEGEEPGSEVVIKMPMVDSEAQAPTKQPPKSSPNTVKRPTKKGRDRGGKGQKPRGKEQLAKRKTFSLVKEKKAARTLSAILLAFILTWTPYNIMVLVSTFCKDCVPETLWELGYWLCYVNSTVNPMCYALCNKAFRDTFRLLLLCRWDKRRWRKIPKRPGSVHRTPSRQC
As to the kind of experiment: biochemical. Type of data set: binding.

The target of a further data set is T2, M2 receptors (Rattus norvegicus, UniProt P10980).
T2 sequence (P10980 1-466): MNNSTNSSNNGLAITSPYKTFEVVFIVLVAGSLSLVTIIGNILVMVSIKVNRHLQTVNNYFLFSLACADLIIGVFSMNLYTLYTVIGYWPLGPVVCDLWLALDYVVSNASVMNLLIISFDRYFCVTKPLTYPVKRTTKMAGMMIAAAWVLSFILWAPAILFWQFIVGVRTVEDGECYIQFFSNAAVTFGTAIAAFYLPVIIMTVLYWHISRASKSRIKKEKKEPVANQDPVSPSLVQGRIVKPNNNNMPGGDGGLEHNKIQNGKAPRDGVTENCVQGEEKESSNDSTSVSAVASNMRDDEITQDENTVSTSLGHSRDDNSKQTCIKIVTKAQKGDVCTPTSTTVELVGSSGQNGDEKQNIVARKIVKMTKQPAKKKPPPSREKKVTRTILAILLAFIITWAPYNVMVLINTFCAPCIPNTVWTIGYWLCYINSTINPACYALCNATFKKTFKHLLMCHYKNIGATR
As to the kind of experiment: biochemical. Format: binding.

Data set [1] deals with reserpine-induced ptosis in mice. The experiment in a line: Anti-reserpine effect: antagonistic effect against reserpine-induced ptosis. To be noted: for Maximum inhibition rate (%): reserpine 2 mg/kg s.c., 90 minutes. Format: in vivo, mouse (ddY strain). The text has this:
It is considered that the sedation caused by the administration of reserpine or tetrabenazine to mice or rats produces an effect similar to the symptoms of clinical depression. Of the various pharmacological effects caused by these compounds, ptosis (drooping of the upper eyelid) and a reduction in body temperature have been widely used as indices of their activity, and it has been shown that any compound which inhibits either ptosis or lowering of the body temperature will also be active against the symptoms of clinical depression. Therefore, anti-reserpine or anti-tetrabenazine effects have been widely used for a long time as a method of screening for antidepressants. The test index used for the evaluation of the compounds of the present invention is the antagonistic effect of a test compound against reserpine-induced ptosis in mice.
The test animals employed were mature male mice of the ddY strain, 4 weeks old and each weighing 22 to 27 g. The animals were divided into groups, each including 3 mice. The compound under test was dissolved or suspended in an appropriate solvent [either physiological saline or a 0.5% CMC (carboxymethyl cellulose) solution] and administered orally to the mice of the test groups in the dose specified in the following Table 6. The mice in a control group were given only the solvent without any active compound, administered in a similar way. Immediately after administration,2 mg/kg of reserpine were administered subcutaneously to every mouse. After 90 minutes, it was determined how much the eyelids had closed (degree of ptosis) by bringing the mouse out of its cage and observing the shape of the eye.
From the scores obtained, the inhibition rate at each dose level was calculated from the following equation: [formula]

Another data set relates to mice. The experiment in a line: Acute toxicity. The note with it: 75 mg/kg, 5 days observation. Format: in vivo, mouse. As for the experimental part: Each of the compounds of Examples 3 and 4 was suspended in a 0.5% CMC solution, and the suspension was administered to mice in an amount sufficient to provide a dose of active compound of 75 mg/kg.
The test system of data set [2] is blood viscosity increase resulting from cerebral ischemia. The experiment in a line: Inhibition of blood viscosity increase resulting from cerebral ischemia. Type of data set: in vivo, rat (Wistar strain). The note with it: oral; one hour after carotid ligation; shear 37.5, 75, 150 and 375/sec. The protocol:
The test animals used were adult male rats of the Wistar strain. Each rat was administered orally either a solution of 3-(3-quinuclidinyloxy)isoxazole hydrochloride (the compound prepared as described in Example 4) in suspension in a 0.5% CMC vehicle or the vehicle itself. Immediately after administration, 40 mg/kg of pentobarbital was administered intraperitoneally for anesthesia. The rat was fixed at the dorsal position, and 0.6 ml of a blood sample was taken from the common jugular vein on one side. The viscosity of each sample was measured using a viscometer (Biorheolyzer, a trade name for product of Tokyo Keiki) at shear values of 37.5/sec, 75/sec, 150/sec and 375/sec. 0.5 ml of blood was then taken from the other side and its viscosity was measured in the same way.
After the first two samples had been taken, the carotid arteries on both sides of each animal were ligated. One hour after ligation, in the case of the control animals (administered only the vehicle), the blood viscosity values had increased by between 5 and 20% at every shear rate (the slower the shear rate, the higher the viscosity).

The next data set concerns the target T3, 5-HT3 receptors (Rattus norvegicus, UniProt P35563).
T3 sequence (P35563 24-483): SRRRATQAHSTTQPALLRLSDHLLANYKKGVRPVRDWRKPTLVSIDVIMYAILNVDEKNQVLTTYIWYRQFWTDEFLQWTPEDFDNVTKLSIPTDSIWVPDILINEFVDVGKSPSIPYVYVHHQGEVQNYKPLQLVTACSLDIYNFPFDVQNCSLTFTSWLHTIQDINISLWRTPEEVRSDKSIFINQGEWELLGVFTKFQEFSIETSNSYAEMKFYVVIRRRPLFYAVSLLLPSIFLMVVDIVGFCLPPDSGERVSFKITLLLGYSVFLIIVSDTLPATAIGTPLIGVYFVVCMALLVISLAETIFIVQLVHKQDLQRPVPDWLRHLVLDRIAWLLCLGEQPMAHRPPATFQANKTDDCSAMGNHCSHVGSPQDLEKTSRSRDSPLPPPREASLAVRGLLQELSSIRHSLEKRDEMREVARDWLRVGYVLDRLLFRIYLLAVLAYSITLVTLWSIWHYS
The experiment in a line: biochemical. Type of data set: binding. The protocol:
A membranous fraction prepared from the cerebral cortex of rats was incubated with the test compound and with ^3 H-GR65630 (to a final concentration of 1 nM, as a ligand to the 5-HT3 receptors) at 37° C. for 45 minutes. At the end of this time, the samples were filtered. The ^3 H radioactivity bound to the filter paper was determined by a scintillation counter as in Experiment 1.

The test system of data set [3] is isolated guinea pig ileum (selective 5-HT3 agonist 2-methyl-5-HT). As to the kind of experiment: Effects upon the isolated guinea pig ileum: inhibition of contraction by 2-methyl-5-HT. The note with it: for Inhibition (%): 10^-6 M, contractile force by 2-methyl-5-HT, 30 minutes after addition. As for the experimental part: The ileum isolated from a guinea pig was hung in a Magnus cup filled with Tyrode's solution. The contractile force exerted by the ileum on the application of a selective 5-HT3 agonist, 2-methyl-5-HT, was determined using an isometric transducer. A test compound was then added to the bath and the contractile force was again measured 30 minutes after the addition. The inhibition rate on the contractile force was calculated.

Setting [4] is: 3H-pirenzepine 1 nM, rat cerebral cortex membrane, 30° C., 60 minutes, read-out: IC50 Pirenzp (a) (cerebral cortex).
[5] abbreviates: ratio IC50 QNB (heart) / IC50 Pirenzp (cerebral cortex).
The mark [6] stands for this setting: 3H-GR65630 1 nM, rat cerebral cortex membrane, 37° C., 45 minutes.

Each structure is given as a SMILES string. Structures can show the parent of a compound that is named as a salt. Where two headings read alike, the source gives them in different places.

As to `CN1CCC(Oc2noc3ccc(Cl)cc23)CC1.Cl` [Example A1, 5-Chloro-3-(1-methyl-4-piperidyloxy)-1,2-benzisoxazole hydrochloride], the IC50 was determined as 1900 nM at M1 receptors (setting [4]) and 41000 nM on M2 receptors (read-out: IC50 QNB (b) (heart)). Also, the “M1 selectivity (b)/(a)” value on M1 receptors (setting [5]) stood at 22.
Turning to `Cc1onc(OC2CN3CCC2CC3)c1Cl.Cl` (stereo not shown) [Example A2, 4-Chloro-5-methyl-3-(3-quinuclidinyloxy)isoxazole hydrochloride], in data set [1] (3 mg/kg po), the Assessment entry is given as “- (not more than 40%)” and the “Maximum inhibition rate (%)” value is 60%. In addition, in data set [1] (30 mg/kg po), the Assessment entry is listed as “+ (inhibition rates not less than 71%)” and the “Maximum inhibition rate (%)” value was found to be 100%. In the data set on mice, the adverse symptoms result is recorded as “nor did the mice exhibit any adverse symptoms” and the deaths result was “no deaths were observed”.
With `Cl.c1cc(OC2CN3CCC2CC3)no1` (stereo not shown) [Example A3, 3-(3-Quinuclidinyloxy)isoxazole hydrochloride], the Assessment entry is “- (not more than 40%)” in data set [1] (1 mg/kg po), “± (from 41% to 70%)” in data set [1] (3 mg/kg po), “+ (inhibition rates not less than 71%)” in data set [1] (10 mg/kg po) and “+ (inhibition rates not less than 71%)” in data set [1] (30 mg/kg po). Also, the “Maximum inhibition rate (%)” value in data set [1] (1 mg/kg po) stood at 21%; in data set [1] (3 mg/kg po), 57%; in data set [1] (10 mg/kg po), 86%; in data set [1] (30 mg/kg po) it was 100%. Besides, the “inhibition of blood viscosity increase” value in data set [2] is “the increase was significantly inhibited at every shear rate”. In addition, the adverse symptoms result in the data set on mice is on record as “nor did the mice exhibit any adverse symptoms”. Moreover, the deaths result in the data set on mice is “no deaths were observed”.
Consider `Cc1cc(OC2CN3CCC2CC3)no1.Cl` (stereo not shown) [Example A4, 5-Methyl-3-(3-quinuclidinyloxy)isoxazole hydrochloride], for which the Assessment result is “± (from 41% to 70%)” in data set [1] (30 mg/kg po) and “+ (inhibition rates not less than 71%)” in data set [1] (100 mg/kg po). Besides, the figures for the “Maximum inhibition rate (%)” value in data set [1] (30 mg/kg po) and in data set [1] (100 mg/kg po) were 45% and 80%, respectively.
`Cl.Clc1c(OC2CN3CCC2CC3)noc1-c1ccccc1` (stereo not shown) [Example A5, 4-Chloro-3-(3-quinuclidinyloxy)-5-phenylisoxazole hydrochloride]: the IC50 at 5-HT3 receptors was determined as 220 nM. In addition, in data set [3], the “5-HT3 antagonist activity (in words)” value is on record as “as potent an antagonist as ondansetron” and the “Inhibition (%)” value is recorded as 82%.
Regarding `Clc1ccc2onc(OC3CN4CCC3CC4)c2c1` (stereo not shown) [Example A6, 5-Chloro-3-(3-quinuclidinyloxy)-1,2-benzisoxazole], the IC50 against 5-HT3 receptors (setting [6]) was determined as 180 nM.
On 5-HT3 receptors, `Clc1ccc(-c2cc(OC3CN4CCC3CC4)no2)cc1` (stereo not shown) [Example A7, 5-(p-Chlorophenyl)-3-(3-quinuclidinyloxy)isoxazole hydrochloride] registered an IC50 of 320 nM.
Turning to `Clc1c(OC2CCCNC2)noc1-c1ccccc1` (stereo not shown) [Example A8, 4-Chloro-5-phenyl-3-(3-piperidyloxy)isoxazole hydrochloride], the IC50 against 5-HT3 receptors (setting [6]) is 260 nM.
Regarding `c1csc(-c2cc(OC3CN4CCC3CC4)no2)c1` (stereo not shown) [Example A9, 3-(3-Quinuclidinyloxy)-5-(2-thienyl)isoxazole hydrochloride], on 5-HT3 receptors, the IC50 stood at 150 nM.
As to `O=C1CCCN1CC#CCN1CCCC1` [Example B1, Oxotremorine], on M1 receptors, the IC50 came to 1300 nM and the “M1 selectivity (b)/(a)” value was found to be 0.9. Besides, on M2 receptors, the IC50 was determined as 1200 nM.
On to `CCN1C(=O)CC2(CCN(C)CC2)C1=O` [Example B2], for which the IC50 at M1 receptors (setting [4]) worked out at 3100 nM; at M2 receptors (read-out: IC50 QNB (b) (heart)), 21000 nM. In addition, the “M1 selectivity (b)/(a)” value at M1 receptors (setting [5]) amounted to 6.8.
On to `CC1OC2(CS1)CN1CCC2CC1` (stereo not shown) [Example B3], for which the IC50 at M1 receptors (setting [4]) was 3600 nM; on M2 receptors (3H-quinuclidinyl benzylate 0.12 nM, rat heart membrane, 30° C., 120 minutes, read-out: IC50 QNB (b) (heart)) it was 14000 nM.
For `Cc1nccn1CC1CCc2c(c3ccccc3n2C)C1=O` (stereo not shown) [Example B5, Ondansetron, reference compound], the “Inhibition (%)” value in data set [3] is 79%.

The record behind these values is patent US5643923A, “Quinuclidinyloxy-isoxazole compounds and their therapeutic uses” (Sankyo Company, Limited, priority 1990, dated 1997).
